Experimental data published in article PMC6478823, “A suite of phenotypic assays to ensure pipeline diversity when prioritizing drug-like Cryptosporidium growth inhibitors” (Nature Communications, 2019).

Key:
purified N-WASp = test system: purified N-WASp; design: method as in PMID 15235593; settings: at 10 µM; cited from earlier work
C. parvum [1] = experiment: NOD SCID gamma (NSG) mouse model of chronic cryptosporidiosis; assay type: in vivo; settings: oral gavage, 4-day treatment course
Source text: It is feasible that Cryptosporidium is most susceptible to drug treatments that show the greatest activity in only one of the mode of action assays described above, which would complicate use of these assays for maintaining a diverse anticryptosporidial pipeline. Therefore, to further test the strategy of ensuring a mechanistically diverse pipeline of anticryptosporidials, it was critical to know that compounds belonging to different phenotypic effect clusters (as in Fig. 7) could work in vivo. For this, thirty-one of the thirty-nine compounds were tested in a mouse model of cryptosporidiosis. There is considerable variability in the in vivo efficacy of anticryptosporidials tested in different mouse models[15],[34]–[39], and it remains unknown which animal models will best predict drug efficacy in humans. […] The piperazine-based compound MMV665917, however, is efficacious in both the acute IFN-γ KO and chronic NSG mouse models. […] Given that the goal of this study was to determine if compounds belonging to different phenotypic clusters might be active in vivo, we assessed in vivo efficacy using the stringent NSG mouse model.
The NOD SCID gamma mouse model for treatment of established cryptosporidiosis was reported previously. […] Oocyst shedding in feces was monitored by qPCR for 18s rRNA gene with the primers Cp18s forward and Cp18s reverse. […]

C. parvum [2] = experiment: Time-lapse microscopy of live C. parvum egress; settings: 2 × EC90 (1.3 µM total)
Procedure: Cells were then imaged live with 5 min intervals using Nomarski optics and a ×60 oil objective (1.4 NA). […] After 3 h, cells were gently washed with warm complete media to remove oocyst shells before adding either compound or DMSO. Tiled 2 × 2 images were taken live at 20 min intervals using a ×40 dry objective (0.7 NA).

CN(C)C[C@H](O)Cn1c2ccc(Br)cc2c2cc(Br)ccc21 (racemic) [Wiskostatin]
inhibition of purified N-WASp (purified N-WASp): inhibit purified N-WASp

CC(=O)Oc1ccccc1C(=O)Nc1ncc([N+](=O)[O-])s1 [Nitazoxanide]
efficacy in the NSG mouse model (reduction in fecal oocyst shedding) (C. parvum [1]): no effect

Cc1cccc(-n2ncc3c(O)nc(-n4nc(C)cc4NC(=O)c4cc5ccccc5o4)nc32)c1 [C-1]
parasite egress during live microscopy (C. parvum [2]): inhibited parasite egress
